Laboratory results as given in patent US11197878B2, “Anti-inflammatory composition including novel quercetin-based compound” (AMOREPACIFIC CORPORATION, priority 2017, dated 2021).

How the values were obtained:
skin = assay: Test for skin accumulated stimulus, HRIPT (Human repeated insult patch tests); assay type: in vivo; set-up: key to skin reactivity (ICDRG criteria): −: negative (no response); ±: doubtful or slight erythema, etc.; +: weak reaction (which is accompanied with no phlyctenule), erythema, papule; ++: severe reaction (which is accompanied with phlyctenule), erythema, papule, phlyctenule; +++: strong reaction, bullae reaction; details: for Number of examinees who exhibited ±, +, or ++ reactivity, 5th: 5th patch; for Number of examinees who exhibited ±, +, or ++ reactivity, 6th: 6th patch; for Number of examinees who exhibited ±, +, or ++ reactivity, 7th: 7th patch; for Number of examinees who exhibited ±, +, or ++ reactivity, 8th: 8th patch; for average reactivity: 9 patches over 3 weeks, 15 examinees, less than 3 is considered a stable composition; for Number of examinees who exhibited ±, +, or ++ reactivity, 9th: 9th patch; for Number of examinees who exhibited ±, +, or ++ reactivity, 1st: 1st patch; for Number of examinees who exhibited ±, +, or ++ reactivity, 2nd: 2nd patch; for Number of examinees who exhibited ±, +, or ++ reactivity, 3rd: 3rd patch; for Number of examinees who exhibited ±, +, or ++ reactivity, 4th: 4th patch
Experimental: HRIPT (Human repeated insult patch tests) was conducted in order to identify skin accumulated stimulus of quercetin3-O-[3-O″-(E)-p-coumaroyl][β-D-glucopyranosyl-(1→3)-O-α-L-rhamnopyranosyl-(1→6)-O-β-D-glucopyranoside] and quercetin3-O-[3-O″-(E)-p-coumaroyl][α-L-rhamnopyranosyl-(1→6)-O-β-D-glucopyranoside] and to calculate the concentration range that can be used in skin. Specifically, 15 healthy adult examinees were randomly selected, and test compositions in which the compounds were respectively comprised in an amount of 0.5 wt. %, 1 wt. %, and 3 wt. % (the compositions for skin, comprising an emulsifying agent, a stabilizer, purified water, etc. in addition to the compounds) were dropped in the amount of 20 μl per chamber (IQ chamber, Epitest Ltd, Finland), and patched on the right site of the upper back of the examinees, and then, after 24 hours, the patch was replaced with a new patch. A total of 9 patches were conducted, three times a week for total 3 weeks, in such manner, the skin reactions before and after patch were examined every time, and the skin reactions until 48 hours after removing the final patch were observed, and the average reactivity was observed. The skin reaction was determined according to the criteria of International Contact Dermatitis Research Group (ICDRG). In the above table, “New Material 31” refers to quercetin3-O-[3-O″-(E)-p-coumaroyl][β-D-glucopyranosyl-(1→3)-O-α-L-rhamnopyranosyl-(1→6)-O-β-D-glucopyranoside], and “New Material 32” refers to quercetin3-O-[3-O″-(E)-p-coumaroyl][α-L-rhamnopyranosyl-(1→6)-O-β-D-glucopyranoside].

IL-8 (Interleukin 8) = assay: Test for inhibiting generation of IL-8 in H2O2-stimulated fibroblast (ELISA); assay type: cell-based
Experimental: Fibroblast (PromoCell, Germany) was inoculated in a 6-well culturing plate at a concentration of 1×10^5 cells, and cultured in a 5% CO2 incubator at 37° C. for 24 hours. The well was treated with H2O2 500 μM and stimulated for 24 hours, and then were treated with quercetin3-O-[3-O″-(E)-p-coumaroyl][β-D-glucopyranosyl-(1→3)-O-α-L-rhamnopyranosyl-(1→6)-O-β-D-glucopyranoside] (‘New Material 31’) and quercetin3-O-[3-O″-(E)-p-coumaroyl][α-L-rhamnopyranosyl-(1→6)-O-β-D-glucopyranoside]) (‘New Material 32’) at a concentration of 100 μg/ml, respectively, and reacted for 48 hours. After the reaction was finished, the culture medium was collected and the ELISA analysis was performed. Herein, α-bisabolol, which is the material typically used as an anti-inflammatory agent and abirritant, was used as a control. As PGE2, a kit of Assay Design® was used, and as IL-6 and IL-8, a kit of Endogen® was used, and the test was carried out according to the methods prescribed in the manuals of the respective companies. (‘31’ refers to New Material 31, and ‘32’ refers to New Material 32) Inhibition effect={1−(test sample−control)/(H2O2−control)}×100 <Equation 1>

C[C@@H]1O[C@@H](OC[C@H]2O[C@@H](Oc3c(-c4ccc(O)c(O)c4)oc4cc(O)cc(O)c4c3=O)[C@H](O)[C@@H](OC(=O)/C=C/c3ccc(O)cc3)[C@@H]2O)[C@H](O)[C@H](O[C@@H]2O[C@H](CO)[C@@H](O)[C@H](O)[C@H]2O)[C@H]1O [New Material 31, quercetin3-O-[3-O″-(E)-p-coumaroyl][β-D-glucopyranosyl-(1→3)-O-α-L-rhamnopyranosyl-(1→6)-O-β-D-glucopyranoside]]
Number of examinees who exhibited ±, +, or ++ reactivity, 5th (skin; 1 wt. %, line 3 of 3 (++)): 0 number | Number of examinees who exhibited ±, +, or ++ reactivity, 6th (skin; 1 wt. %, line 1 of 3 (±)): 0 number | Number of examinees who exhibited ±, +, or ++ reactivity, 6th (skin; 1 wt. %, line 2 of 3 (+)): 0 number | Number of examinees who exhibited ±, +, or ++ reactivity, 6th (skin; 1 wt. %, line 3 of 3 (++)): 0 number | Number of examinees who exhibited ±, +, or ++ reactivity, 7th (skin; 1 wt. %, line 1 of 3 (±)): 0 number | Number of examinees who exhibited ±, +, or ++ reactivity, 7th (skin; 1 wt. %, line 2 of 3 (+)): 0 number | Number of examinees who exhibited ±, +, or ++ reactivity, 7th (skin; 1 wt. %, line 3 of 3 (++)): 0 number | Number of examinees who exhibited ±, +, or ++ reactivity, 8th (skin; 1 wt. %, line 1 of 3 (±)): 0 number | Number of examinees who exhibited ±, +, or ++ reactivity, 8th (skin; 1 wt. %, line 2 of 3 (+)): 0 number | Number of examinees who exhibited ±, +, or ++ reactivity, 8th (skin; 1 wt. %, line 3 of 3 (++)): 0 number | average reactivity (skin; 1 wt. %): 0 | Number of examinees who exhibited ±, +, or ++ reactivity, 9th (skin; 1 wt. %, line 1 of 3 (±)): 0 number | Number of examinees who exhibited ±, +, or ++ reactivity, 9th (skin; 1 wt. %, line 2 of 3 (+)): 0 number | Number of examinees who exhibited ±, +, or ++ reactivity, 9th (skin; 1 wt. %, line 3 of 3 (++)): 0 number | Number of examinees who exhibited ±, +, or ++ reactivity, 1st (skin; 3 wt. %, line 1 of 3 (±)): 0 number | Number of examinees who exhibited ±, +, or ++ reactivity, 1st (skin; 3 wt. %, line 2 of 3 (+)): 0 number | Number of examinees who exhibited ±, +, or ++ reactivity, 1st (skin; 3 wt. %, line 3 of 3 (++)): 0 number | Number of examinees who exhibited ±, +, or ++ reactivity, 2nd (skin; 3 wt. %, line 1 of 3 (±)): 0 number | Number of examinees who exhibited ±, +, or ++ reactivity, 2nd (skin; 3 wt. %, line 2 of 3 (+)): 0 number | Number of examinees who exhibited ±, +, or ++ reactivity, 2nd (skin; 3 wt. %, line 3 of 3 (++)): 0 number | Number of examinees who exhibited ±, +, or ++ reactivity, 3rd (skin; 3 wt. %, line 1 of 3 (±)): 0 number | Number of examinees who exhibited ±, +, or ++ reactivity, 3rd (skin; 3 wt. %, line 2 of 3 (+)): 0 number | Number of examinees who exhibited ±, +, or ++ reactivity, 3rd (skin; 3 wt. %, line 3 of 3 (++)): 0 number | Number of examinees who exhibited ±, +, or ++ reactivity, 4th (skin; 3 wt. %, line 1 of 3 (±)): 0 number | Number of examinees who exhibited ±, +, or ++ reactivity, 4th (skin; 3 wt. %, line 2 of 3 (+)): 0 number | Number of examinees who exhibited ±, +, or ++ reactivity, 4th (skin; 3 wt. %, line 3 of 3 (++)): 0 number | Number of examinees who exhibited ±, +, or ++ reactivity, 5th (skin; 3 wt. %, line 1 of 3 (±)): 0 number | Number of examinees who exhibited ±, +, or ++ reactivity, 5th (skin; 3 wt. %, line 2 of 3 (+)): 0 number | Number of examinees who exhibited ±, +, or ++ reactivity, 5th (skin; 3 wt. %, line 3 of 3 (++)): 0 number | Number of examinees who exhibited ±, +, or ++ reactivity, 6th (skin; 3 wt. %, line 1 of 3 (±)): 0 number | Number of examinees who exhibited ±, +, or ++ reactivity, 6th (skin; 3 wt. %, line 2 of 3 (+)): 0 number | Number of examinees who exhibited ±, +, or ++ reactivity, 6th (skin; 3 wt. %, line 3 of 3 (++)): 0 number | Number of examinees who exhibited ±, +, or ++ reactivity, 7th (skin; 3 wt. %, line 1 of 3 (±)): 0 number | Number of examinees who exhibited ±, +, or ++ reactivity, 7th (skin; 3 wt. %, line 2 of 3 (+)): 0 number | Number of examinees who exhibited ±, +, or ++ reactivity, 7th (skin; 3 wt. %, line 3 of 3 (++)): 0 number | Number of examinees who exhibited ±, +, or ++ reactivity, 8th (skin; 3 wt. %, line 1 of 3 (±)): 0 number | Number of examinees who exhibited ±, +, or ++ reactivity, 8th (skin; 3 wt. %, line 2 of 3 (+)): 0 number | Number of examinees who exhibited ±, +, or ++ reactivity, 8th (skin; 3 wt. %, line 3 of 3 (++)): 0 number | average reactivity (skin; 3 wt. %): 0 | Number of examinees who exhibited ±, +, or ++ reactivity, 9th (skin; 3 wt. %, line 1 of 3 (±)): 0 number | Number of examinees who exhibited ±, +, or ++ reactivity, 9th (skin; 3 wt. %, line 2 of 3 (+)): 0 number | Number of examinees who exhibited ±, +, or ++ reactivity, 9th (skin; 3 wt. %, line 3 of 3 (++)): 0 number | skin reactivity (ICDRG criteria) (skin; within the range of contents 0.5 wt. %, 1 wt. %, 3 wt. %): − | inhibition at 100 µg/mL (IL-8 (Interleukin 8); Fibroblast, 100 μg/ml, {1−(test sample−control)/(H2O2−control)}×100, read-out: Inhibition effect according to Equation 1, IL-8): 61.1% | IL-8 (IL-8 (Interleukin 8); fibroblast culture medium, H2O2 500 μM 24 hours, then test material (31, 32: 100 μg/ml) 48 hours, ELISA): 235 pg/mL
